Data on three molecules can be found in patent publication US4920231A, “Process of braking triflouromethyl compounds” (Roussel Uclaf, priority 1988, dated 1990).

Each structure is given as a SMILES string. ≈ marks a conversion by molar mass, not a printed value.

What all share (format): in vivo
The subject of assay [1] is Boophilus microplus larvae. Briefly: Study of the activity on Boophilus microplus larvae (spraying tower, % mortality). Particulars: for activity on Boophilus microplus larvae (conclusion): 100, 10 and 1 ppm; for mortality at 1 ppm / mortality at 10 ppm / mortality at 100 ppm: Rhipicephalus microplus, in Bos taurus, larvae, after 24 hours. Here is the method:
C. Study of the acaricide activity in animals
(a) Study of the activity on Boophilus microplus larvae
The substance under test was dissolved in a mixture of dimethylformamide, emulsifiers and Arcopal so as to obtain a concentrate emulsifying at 10%. This concentrate was diluted with water to obtain solutions of the desired concentrations of 100, 10 and 1 ppm. Using a spraying tower, the various solutions were sprayed over the larvae of tropical cattle ticks of Boophilus microplus type, and after 24 hours, the percentage of mortality was determined by counting the living and dead larvae.

For assay [2], the system named is Boophilus microplus females. Briefly: Study of the activity on inhibition of the reproduction of Boophilus microplus ticks. Particulars: for activity on inhibition of reproduction of Boophilus microplus ticks (conclusion): 100 to 0.19 ppm; for inhibition at 0.38 ppm / inhibition at 0.75 ppm / inhibition at 1.5 ppm / inhibition at 3.1 ppm / inhibition at 6.2 ppm / inhibition at 12.5 ppm / inhibition at 25 ppm / inhibition at 50 ppm / inhibition at 100 ppm / inhibition at 0.19 ppm: Rhipicephalus microplus, 5 min, females submerged for 5 minutes. Here is the method: The substance under test was dissolved in a mixture of dimethylformamide, emulsifiers and Arcopal so as to obtain a concentrate emulsifying at 10%. This concentrate was diluted with water to obtain solutions of the desired concentrations of 100, 10 and 1 ppm. Using a spraying tower, the various solutions were sprayed over the larvae of tropical cattle ticks of Boophilus microplus type, and after 24 hours, the percentage of mortality was determined by counting the living and dead larvae. The results are as follows:
(b) Study of the activity on inhibition of the reproduction of Boophilus microplus ticks
Boophilus microplus females, ready to lay eggs, were submerged for 5 minutes in the solutions prepared above and then they were placed in a heated chamber to lay the eggs. […]

Assay [3] concerns Aphis cracivora. Briefly: Study of the lethal effect on Aphis cracivora (contact-injection method, treated broad-bean leaf). The settings on record: 7-day old adults, contact with treated leaf for one hour, mortality after 24 hours. Here is the method:
B. Study of the lethal effect on Aphis cracivora
7-day old adults were used and 10 aphids per concentration used were employed. A contact-injection method was used and the treatment of a broad-bean leaf was carried out with a Fisher gun, the leaf being placed in a plastic Petri dish on a circle of damp paper. The treatment was carried out with 2 ml of acetone solution of the product under test (1 ml per side of leaf). The infestation by the insects was brought about after drying the leaf and the insects were kept in contact with the leaf for one hour. Insects were placed on untreated leaves and the mortality was checked after 24 hours.

Assay [4] has as its system house-fly. The assay can be described thus: Study of lethal activity on the house-fly (topical application). The settings on record: four-day old female house-flies, topical 1 μl acetone solution on dorsal thorax, mortality at 24 hours; without synergist or with piperonyl butoxide (table does not say which). On the procedure:
A. Study of lethal activity on the house-fly
The insects tested were four-day old female house-flies and the test was carried out by topical application of 1 μl of acetone solution on the dorsal thorax of the insects using an Arnold micromanipulator. 50 individuals per treatment were used and a mortality check was carried out 24 hours after treatment. The tests were carried out without a synergist or with the addition of piperonyl butoxide (10 parts of synergist per 1 part of test compound). The experimental results, given in the following table, are expressed in LD 50 (in nanograms) necessary to kill 50% of the insects: […]

In the case of `CC(OC(=O)[C@@H]1[C@@H](/C=C(/c2ccc(Cl)cc2)C(F)(F)F)C1(C)C)c1cccc(Oc2ccccc2)n1` (stereo partly drawn) [Example 5, 1-(6-phenoxy-2-pyridyl)-ethyl [1R-(1α,(RS), 3β]] 2,2-dimethyl-3-[(ΔZ)-2-(4-chlorophenyl)-3,3,3-trifluoro-1-propenyl]-cyclopropane carboxylate], in assay [1], the “activity on Boophilus microplus larvae (conclusion)” value was “remarkable activity”, the mortality (commonly the share of the test organisms that died) at 1 ppm is 100% and the mortality at 10 ppm came out at 100%. In assay [2], the “activity on inhibition of reproduction of Boophilus microplus ticks (conclusion)” value (“activity on inhibition” below) was “remarkable activity”; the inhibition (in general, the share of the control response that was lost under treatment) at 0.38 ppm was determined as 85%; the inhibition at 0.75 ppm was 100%; testing at 1.5 ppm gave an inhibition of 100%. In assay [2], this molecule returned an inhibition at 3.1 ppm of 100%, an inhibition at 6.2 ppm of 100%, an inhibition at 12.5 ppm of 100% and an inhibition at 25 ppm of 100%. Moreover, in assay [2], testing at 50 ppm gave an inhibition of 100% and the inhibition at 100 ppm amounted to 100%.
With `CC1(C)[C@H](/C=C(/c2ccc(Cl)cc2)C(F)(F)F)[C@H]1C(=O)O[C@H](C#N)c1ccc(F)c(Oc2ccccc2)c1` [Example 4, α-Cyano-4-fluoro-3-phenoxy-benzyl [1R-[1α(S*)-3β]-2,2-dimethyl-3-[(ΔZ) 2-(4-chlorophenyl)-3,3,3-trifluoro-1-propenyl]-cyclopropane carboxylate], in assay [1], the “activity on Boophilus microplus larvae (conclusion)” value is given as “remarkable activity”, the mortality at 1 ppm is 100%, the mortality at 10 ppm was found to be 100% and the mortality at 100 ppm was determined as 100%. In assay [2], the “activity on inhibition” value is recorded as “remarkable activity”, the inhibition at 0.19 ppm worked out at 100%, at 0.38 ppm the inhibition was 100% and the inhibition at 0.75 ppm was 100%. Further, in assay [2], the inhibition at 1.5 ppm turned out to be 100%, the inhibition at 3.1 ppm turned out to be 100%, the inhibition at 6.2 ppm came to 100% and the inhibition at 12.5 ppm stood at 100%. Besides, in assay [2], the inhibition at 25 ppm was 100%, testing at 50 ppm gave an inhibition of 100% and testing at 100 ppm gave an inhibition of 100%. In assay [3], the LC50 (in general, the concentration lethal to half of the exposed cells or organisms) is 0.6 µg/mL (≈ 1.1 µM). The “LD 50” value in assay [4] was found to be 5.3 ng/insect.
Turning to `C[C@@H](OC(=O)[C@@H]1[C@@H](/C=C(/c2ccc(Cl)cc2)C(F)(F)F)C1(C)C)c1cccc(Oc2ccccc2)n1` [Example 3, 1-(6-phenoxy-2-pyridyl)-ethyl [1R-[1α(R*), 3β]]2,2-dimethyl-3-[(ΔZ)-2-(4-chlorophenyl)-3,3,3-trifluoro-1-propenyl]-cyclopropane carboxylate], in assay [1], the “activity on Boophilus microplus larvae (conclusion)” value is “remarkable activity”, the mortality at 1 ppm amounted to 100%, the mortality at 10 ppm was 100% and the mortality at 100 ppm came out at 100%. In assay [2], the “activity on inhibition” value is “remarkable activity”, the inhibition at 0.19 ppm came out at 100%, 0.38 ppm produced 100% inhibition and the inhibition at 0.75 ppm turned out to be 100%. In assay [2], the inhibition at 1.5 ppm came out at 100%, the inhibition at 3.1 ppm worked out at 100%, the inhibition at 6.2 ppm was 100% and the inhibition at 12.5 ppm turned out to be 100%. In assay [2], this molecule came in with an inhibition at 25 ppm of 100%, an inhibition at 50 ppm of 100% and an inhibition at 100 ppm of 100%. The 50% lethal concentration (LC50) in assay [3] came to 1.34 µg/mL (≈ 2.6 µM). Moreover, the “LD 50” value in assay [4] is 19.6 ng/insect.
